Where a SMILES comes first, the peptide text is derived from it. [ ]: non-standard residue; d: D form. Sar = CNCC(=O)O A value given as a limit tells only on which side of the number the result lay.

The subject of data set [1] is Caco-2. Kind of data set: Caco-2 transepithelial transport with apical FaSSIF versus Mes (Experiment Three). The data set is classed as in vitro ADME. Particulars: for increase of A→B permeability with apical FaSSIF / increase of B→A permeability with apical FaSSIF: Caco-2, apical FaSSIF pH 6.5 compared with Mes pH 6.5. As to the method:
Methods. […] Caco-2 transepithelial transport studies were performed using a standardized 24-well transwell format (20-24 day culture/passage 30-40). The transport experiments were performed using 0.3 mL apical solution either Ringers (pH 7.4), Mes (pH 6.5), or FaSSIF (pH 6.5, calcium free) and 1.2 mL basolateral solution (Ringer's buffer: pH 7.4, 290 mOsm/kg, 25 mM glucose). […] and B→A permeability was studied at 37° C., 50 opm, 95% humidity, and 5% CO2 using a 100 μM donor concentration with 1% DMSO. Monolayer integrity was evaluated by TEER measurements. Rabbit regional intestinal permeability studies were conducted using the Ussing side-by-side diffusion chamber, with volumes of 1.5 mL on each side. Intestinal segments (duodenum/jejunum/ileum/descending colon) were harvested from male New Zealand white rabbits (2.5-3.0 kg), stripped of the muscle layers and mounted in the chambers.

Data set [2] in a line: Caco-2 transepithelial transport at different apical pH, buffers and CO2 incubation (Experiment Two). The data set is classed as in vitro ADME. Particulars: human. Here is the method:
(§1) Methods. In vitro permeability of various transport marker compounds was investigated using different apical pH's (pH 7.4 and pH 6.5), different buffers (Ringers, Mes, and Hepes), and different incubation (with or without CO2) conditions. Caco-2 transepithelial transport studies were performed using a standardized 24-well transwell format (20-24 day culture/passage 30-40). The apical (A, 0.3 mL volume) and basolateral (B, 1.2 mL volume) reservoirs were filled with Ringer's buffer (pH 7.4, 290 mOsm/kg), containing 25 mM glucose. A→B and B→A permeability was studied at 37° C., 50 opm, 95% humidity, and 5% CO2 using a 100 μM donor concentration with 1% DMSO. Monolayer integrity was evaluated by transepithelial electrical resistance (TEER) measurements.

Data set [3] concerns Caco-2. The description is as above. The data set is classed as in vitro ADME. Particulars: for increase of A to B Effective Permeability (Peff) on change of apical pH from 7.4 to 6.5 / decrease of A to B Effective Permeability (Peff) on change of apical pH from 7.4 to 6.5: Caco-2, apical pH 6.5 vs 7.4; for decrease of A to B Peff in the absence of CO2: Caco-2, pH 7.4 Ringers without CO2, pH shifted to 7.8-8.0. Here is the method: as §1
A general note: Passage across Caco-2 layers is used to estimate intestinal permeability.

Data set [4] concerns Caco-2. The settings on record: cited from earlier work; for range of in vitro permeability values in inter-laboratory Caco-2: values from 10 references with various culture and transport conditions.
Data set [5] in a line: Caco-2 monolayer A to B permeability of marker compounds, standardized conditions (Experiment One). Particulars: human, Caco-2, pH 7.4.
The test system of data set [6] is Caco-2. As to the kind of experiment: Inter-laboratory Caco-2 permeability values of marker compounds collected from references. The data set is classed as in vitro ADME. The settings on record: for variability of in vitro permeability values in inter-laboratory Caco-2: values from 10 references with various culture and transport conditions.

Take `Nc1nc2c(ncn2COCCO)c(=O)[nH]1` [acyclovir]: the “increase of A→B permeability with apical FaSSIF” value (from here on “increase of A→B permeability”) in data set [1] turned out to be 3 fold.

As to `COc1cc([C@@H]2c3cc4c(cc3[C@@H](O[C@@H]3O[C@@H]5CO[C@@H](C)O[C@H]5[C@H](O)[C@H]3O)[C@H]3COC(=O)[C@H]23)OCO4)cc(OC)c1O` [etoposide], the efflux ratio at 90 min, 100 μM in data set [2] (Caco-2, apical pH 6.5) stood at 12; in data set [2] (Caco-2, apical pH 7.4), 8. Moreover, the “increase of A→B permeability” value in data set [1] was determined as 2 fold.

For `CN(CC(=O)O)C(=O)CN` [glycylsarcosine] (H-Gly-[Sar]-OH), in data set [3], the “increase of A to B Effective Permeability (Peff) on change of apical pH from 7.4 to 6.5” value was 6 × and the “decrease of A to B Peff in the absence of CO2” value was found to be 2 ×. Besides, the “decrease of A→B permeability with apical FaSSIF” value in data set [1] (Caco-2, FaSSIF in apical compartment) was 2 fold.

As to `CC(C)Cc1ccc(C(C)C(=O)O)cc1` (stereo not drawn) [ibuprofen], the “increase of A to B Effective Permeability (Peff) on change of apical pH from 7.4 to 6.5” value in data set [3] was found to be 3 ×.

Turning to `CC(C(=O)O)c1cccc(C(=O)c2ccccc2)c1` (stereo not drawn) [ketoprofen], the “decrease of A to B Peff in the absence of CO2” value in data set [3] amounted to 2 ×.

Turning to `OC[C@@H](O)[C@@H](O)[C@H](O)[C@H](O)CO` [mannitol], in data set [1], the “increase of A→B permeability” value is reported as 3 fold and the “increase of B→A permeability with apical FaSSIF” value was found to be 11 fold. Also, the “range of in vitro Apparent Permeability (Papp) values from published references” value in data set [4] (published references) is listed as 0.019-6.55 ×10^−6 cm/s. Further, the “range of in vitro permeability values in inter-laboratory Caco-2” value in data set [4] is 0.38-3.23 ×10^−6 cm/s. In data set [5], this compound yielded a Papp A→B at 90 min, 100 μM of 0.461 ×10⁻⁶ cm/s. Also, in data set [6] (published references), the “variability of in vitro Apparent Permeability (Papp) values from published references” value is recorded as 345 fold. Further, the “variability of in vitro permeability values in inter-laboratory Caco-2” value in data set [6] turned out to be 9 fold.

For `CC(C)NCC(O)COc1cccc2ccccc12` (stereo not drawn) [propranolol], the efflux ratio at 90 min, 100 μM in data set [2] (Caco-2, apical pH 6.5) was > 4. Also, in data set [3], the “decrease of A to B Effective Permeability (Peff) on change of apical pH from 7.4 to 6.5” value was found to be 3 ×. The “range of in vitro permeability values in inter-laboratory Caco-2” value in data set [4] is 14.8-110 ×10^−6 cm/s. In data set [5], this compound registered a Papp A→B at 90 min, 100 μM of 28.7 ×10⁻⁶ cm/s. For the same compound, the “variability of in vitro permeability values in inter-laboratory Caco-2” value in data set [6] worked out at 7 fold.

As for `NC(=O)c1ncn([C@@H]2O[C@H](CO)[C@@H](O)[C@H]2O)n1` [ribavirin], the “increase of A→B permeability” value in data set [1] was 5 fold.

Regarding `CC[C@]1(O)C[C@@H]2CN(CCc3c([nH]c4ccccc34)[C@@](C(=O)OC)(c3cc4c(cc3OC)N(C)[C@H]3[C@@](O)(C(=O)OC)[C@H](OC(C)=O)[C@]5(CC)C=CCN6CC[C@]43[C@@H]65)C2)C1` [vinblastine], the efflux ratio at 90 min, 100 μM in data set [2] (Caco-2, apical pH 6.5) was 32; in data set [2] (Caco-2, apical pH 7.4), 4. The “decrease of A to B Effective Permeability (Peff) on change of apical pH from 7.4 to 6.5” value in data set [3] came out at 5 ×.

In the case of Polyethylene Glycol [PEG 4000], in data set [1], the “increase of A→B permeability” value is listed as 2 fold and the “increase of B→A permeability with apical FaSSIF” value is given as 2 fold.

For orientation: efflux ratio means a quotient of directional permeabilities that is used to spot active efflux. What is called Papp A→B is how fast a substance crosses the layer from the apical side.

Source of the values: patent US20040180322A1, “Regional intestinal permeability model” (priority 2000, published 2004).
